Active and inactive are the calls of the source.

In one experiment the target is Prothrombin (Homo sapiens, UniProt P00734). In words: Thrombin 1536 HTS Dose Response Confirmation. [Related pubchem assays: 1046 (Thrombin 1536 HTS; hits were confirmed in this assay)]. In kind it is functional.
The nature of experiment [1]: viability loss in HEK293 cells – cell-based, plate reader, cherry-picked samples, cytotoxicity control, dose response (AID 743446). In kind it is functional.
The nature of experiment [2]: A549 cell cytotoxicity, dose response, cytotoxicity control, plate reader, cherry-pick, antagonist series (AID 743412). In kind it is functional, cell-based.
Experiment [3] is described as follows: blockers of bursicon-stimulated LGR2 cAMP reporter – cell-based, HEK293, CRE-luciferase reporter, cherry pick, set 2, dose response (AID 743343).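 Also: transfected cells were stimulated with diluted bursicon conditioned medium after compound addition.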 Type of experiment: functional.
The nature of experiment [4]: blockade of melanocortin 4 receptor signaling – cell-based, plate reader, cherry pick, counter-screen for LGR2 antagonist project, dose response (AID 743444).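 Also: transfected HEK 293 cells stimulated with alpha-MSH peptide; potency of inhibitors of the alpha-MSH evoked signal.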 Type of experiment: functional.
Experiment [5] deals with Heat shock protein HSP 90-alpha (Homo sapiens, UniProt P07900). In words: Luminescence-based dose response biochemical high throughput screening assay for inhibitors of the Heat Shock Protein 90 (HSP90). [Related pubchem assays: 1831 (Summary AID.), 1846 (Confirmation screen.), 1789 (Primary screen.)].
The target in experiment [6] is Disintegrin and metalloproteinase domain-containing protein 17 (Homo sapiens, UniProt P78536). In words: inhibition of ADAM17 substrate cleavage – biochemical, quenched FRET substrate, counter-screen for ADAM10 exosite inhibitor project, dose response (AID 743253).
Chain of Disintegrin and metalloproteinase domain-containing protein 17 (P78536 whole entry, the tested form may be a part): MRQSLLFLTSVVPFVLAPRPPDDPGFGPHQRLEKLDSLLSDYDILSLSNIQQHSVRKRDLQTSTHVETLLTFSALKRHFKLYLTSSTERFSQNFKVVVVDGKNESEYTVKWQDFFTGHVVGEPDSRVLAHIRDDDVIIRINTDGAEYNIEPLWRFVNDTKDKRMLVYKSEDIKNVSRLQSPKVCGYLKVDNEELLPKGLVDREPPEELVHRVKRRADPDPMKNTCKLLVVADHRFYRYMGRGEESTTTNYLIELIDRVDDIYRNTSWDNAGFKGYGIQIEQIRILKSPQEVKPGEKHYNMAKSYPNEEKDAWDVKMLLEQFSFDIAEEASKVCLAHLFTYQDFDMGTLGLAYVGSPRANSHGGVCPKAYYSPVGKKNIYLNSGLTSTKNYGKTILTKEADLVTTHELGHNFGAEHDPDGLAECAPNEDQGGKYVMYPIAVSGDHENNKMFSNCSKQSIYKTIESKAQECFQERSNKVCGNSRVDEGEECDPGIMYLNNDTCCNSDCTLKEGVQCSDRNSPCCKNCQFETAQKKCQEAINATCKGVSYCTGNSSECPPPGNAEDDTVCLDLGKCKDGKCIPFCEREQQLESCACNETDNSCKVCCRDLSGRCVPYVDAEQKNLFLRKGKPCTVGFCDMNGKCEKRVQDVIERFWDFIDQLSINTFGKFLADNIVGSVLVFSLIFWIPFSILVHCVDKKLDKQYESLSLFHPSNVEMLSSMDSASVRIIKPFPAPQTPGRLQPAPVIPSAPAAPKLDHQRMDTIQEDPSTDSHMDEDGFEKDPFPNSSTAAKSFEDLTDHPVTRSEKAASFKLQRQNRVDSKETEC
Experiment [7] is described as follows: Trypanosoma cruzi growth suppression in host cells – NIH3T3 host cells, beta-gal luminescence, confirmation (AID 2044).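 Also: intracellular parasites grown in NIH/3T3 mouse fibroblasts as host cells; luminescent beta-galactosidase reporter signal from transgenic T. cruzi replicating inside host cells; inhibitors lower the luminescence signal.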 Type of experiment: functional, cell-based.
Experiment [8] is described as follows: microbe, parasite or virus in culture. The note with it: Mycobacterium tuberculosis. In kind it is functional.
Experiment [9] concerns Streptococcus sp. 'group A'. In words: Streptococcus pyogenes SK(-)GAS viability under kanamycin – luminescence, BacTiterGlo, confirmation, counter-screen for streptokinase expression inhibitor project, dose response (AID 1900). Type of experiment: functional, organism-based.
For another experiment, the system named is Streptococcus. Briefly: GAS UMAA2166 growth inhibition – luminescence, BacTiterGlo, counter-screen for streptokinase expression inhibitor project, dose response (AID 1915).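 Also: potency for reduction of bacterial viability or growth.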 In kind it is functional, organism-based.
The next experiment has as its target T1, Streptokinase A (Streptococcus pyogenes serotype M1, UniProt P10520).
T1 sequence (P10520 whole entry): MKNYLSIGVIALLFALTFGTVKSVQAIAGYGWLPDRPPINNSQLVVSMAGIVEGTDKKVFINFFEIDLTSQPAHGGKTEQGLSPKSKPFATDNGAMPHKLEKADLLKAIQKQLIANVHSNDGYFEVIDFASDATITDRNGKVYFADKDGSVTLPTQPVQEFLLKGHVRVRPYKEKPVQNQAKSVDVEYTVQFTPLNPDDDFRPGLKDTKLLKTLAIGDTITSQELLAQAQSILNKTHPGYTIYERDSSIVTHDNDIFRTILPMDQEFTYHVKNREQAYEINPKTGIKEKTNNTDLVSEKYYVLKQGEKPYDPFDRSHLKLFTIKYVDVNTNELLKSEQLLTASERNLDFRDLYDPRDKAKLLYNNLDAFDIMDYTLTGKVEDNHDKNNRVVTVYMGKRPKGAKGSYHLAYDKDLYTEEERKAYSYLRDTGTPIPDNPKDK
Briefly: viability-normalized secreted streptokinase activity reduction – plasminogen activation absorbance, OD405, dose response (AID 1914).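 Also: secreted streptokinase activity via plasminogen activation per viability signal from cell pellet.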 In kind it is functional, Streptococcus pyogenes M1 GAS.

A short description of experiment [10]: NIH3T3 cell viability loss – ATP luminescence, mouse fibroblasts, counter-screen, dose response (AID 2010).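 Also: cells exposed to compound for about 90 hours before reading.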 In kind it is functional, cell-based.
The target in experiment [11] is T2, Polyadenylate-binding protein 1 (Homo sapiens, UniProt P11940). In words: MLLE domain peptide-binding blockers, IC50 – biochemical, fluorescence polarization, FITC-PAM2 peptide, dose response (AID 602259). The note with it: read-out: IC50_Mean. Type of experiment: functional.
T2 sequence (P11940 whole entry, the tested form may be a part): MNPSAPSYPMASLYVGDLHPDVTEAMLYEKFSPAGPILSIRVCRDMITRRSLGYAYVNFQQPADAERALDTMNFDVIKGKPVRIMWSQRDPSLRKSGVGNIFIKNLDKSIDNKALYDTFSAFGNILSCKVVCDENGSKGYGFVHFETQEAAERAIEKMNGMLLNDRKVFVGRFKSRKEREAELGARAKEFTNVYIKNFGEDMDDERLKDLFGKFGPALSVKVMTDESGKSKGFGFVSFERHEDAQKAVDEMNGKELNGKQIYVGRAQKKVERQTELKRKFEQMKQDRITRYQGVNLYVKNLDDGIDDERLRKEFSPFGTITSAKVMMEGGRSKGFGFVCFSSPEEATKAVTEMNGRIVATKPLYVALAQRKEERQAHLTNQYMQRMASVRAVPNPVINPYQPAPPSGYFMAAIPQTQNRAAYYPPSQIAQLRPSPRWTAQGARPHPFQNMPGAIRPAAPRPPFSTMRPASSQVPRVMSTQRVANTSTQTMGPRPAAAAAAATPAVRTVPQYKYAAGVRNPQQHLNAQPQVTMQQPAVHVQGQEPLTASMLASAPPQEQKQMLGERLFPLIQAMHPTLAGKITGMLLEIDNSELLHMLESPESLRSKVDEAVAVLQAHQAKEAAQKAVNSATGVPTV
For experiment [12], the target named is E3 ubiquitin-protein ligase Mdm2 (Homo sapiens, UniProt Q00987). Briefly: MDM2-luc reporter signal enhancers, multi-concentration potency testing, MDM2 ubiquitin-protein ligase inhibitor program, whole-cell format, luminescence detection, 384-well microplate (AID 1394).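 Also: MDM2 E3 inhibitors raise luminescence so EC50 is for signal enhancement.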 Type of experiment: functional.
Chain of E3 ubiquitin-protein ligase Mdm2 (Q00987 whole entry): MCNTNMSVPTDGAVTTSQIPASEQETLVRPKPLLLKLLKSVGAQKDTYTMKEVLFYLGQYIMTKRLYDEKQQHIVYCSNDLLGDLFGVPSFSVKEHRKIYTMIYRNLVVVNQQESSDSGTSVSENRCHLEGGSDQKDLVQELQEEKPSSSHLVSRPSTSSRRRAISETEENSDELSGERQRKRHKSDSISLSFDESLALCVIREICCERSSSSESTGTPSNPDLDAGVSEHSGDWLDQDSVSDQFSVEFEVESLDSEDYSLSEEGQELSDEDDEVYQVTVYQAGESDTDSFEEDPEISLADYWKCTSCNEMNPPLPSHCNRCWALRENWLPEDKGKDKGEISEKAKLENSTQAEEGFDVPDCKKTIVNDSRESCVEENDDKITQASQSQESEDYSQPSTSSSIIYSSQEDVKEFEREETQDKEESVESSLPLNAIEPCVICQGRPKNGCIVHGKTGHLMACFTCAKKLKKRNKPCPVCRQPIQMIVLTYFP
The target in experiment [13] is T2, Polyadenylate-binding protein 1. In words: MLLE binding blockers, Cy5 peptide tracer – biochemical, fluorescence polarization, Cy5-PAM2 peptide, secondary, miRNA deadenylation inhibitor project, dose response (AID 602260). Type of experiment: functional. The note with it: read-out: IC50_Mean.
The nature of experiment [14]: NIH-3T3 fibroblast cytotoxicity, dose response, cytotoxicity control, cell-based, fluorescence, Alamar Blue, secondary assay (AID 2327).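 Also: NIH-3T3 mouse fibroblasts cultured with fluconazole at 8 µg/mL.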 In kind it is functional.
Experiment [15] in a line: fluconazole-exposed Candida albicans growth modulators – fluorescence, retest, confirmation (AID 2467). In kind it is functional, cell-based.
The target of experiment [16] is T3, Mannose-6-phosphate isomerase (Homo sapiens, UniProt P34949).
T3 sequence (P34949 whole entry): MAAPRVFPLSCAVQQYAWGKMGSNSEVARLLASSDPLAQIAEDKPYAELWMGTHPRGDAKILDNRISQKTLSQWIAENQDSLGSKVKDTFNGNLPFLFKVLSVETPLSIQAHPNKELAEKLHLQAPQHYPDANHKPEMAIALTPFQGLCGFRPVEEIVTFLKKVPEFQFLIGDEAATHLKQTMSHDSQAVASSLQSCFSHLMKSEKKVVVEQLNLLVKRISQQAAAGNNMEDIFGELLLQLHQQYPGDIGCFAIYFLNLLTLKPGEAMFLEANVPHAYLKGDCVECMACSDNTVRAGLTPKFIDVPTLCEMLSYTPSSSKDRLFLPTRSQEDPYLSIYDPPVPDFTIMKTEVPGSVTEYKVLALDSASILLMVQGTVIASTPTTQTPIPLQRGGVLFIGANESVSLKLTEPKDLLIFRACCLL
In words: MPI inhibition at elevated mannose 6-phosphate – biochemical, fluorescence intensity, high mannose 6-phosphate, primary screen (AID 1220).

For experiment [17], the target named is T4, Replicative DNA helicase DnaB (Mycobacterium tuberculosis, UniProt P9WMR3).
T4 sequence (P9WMR3 whole entry): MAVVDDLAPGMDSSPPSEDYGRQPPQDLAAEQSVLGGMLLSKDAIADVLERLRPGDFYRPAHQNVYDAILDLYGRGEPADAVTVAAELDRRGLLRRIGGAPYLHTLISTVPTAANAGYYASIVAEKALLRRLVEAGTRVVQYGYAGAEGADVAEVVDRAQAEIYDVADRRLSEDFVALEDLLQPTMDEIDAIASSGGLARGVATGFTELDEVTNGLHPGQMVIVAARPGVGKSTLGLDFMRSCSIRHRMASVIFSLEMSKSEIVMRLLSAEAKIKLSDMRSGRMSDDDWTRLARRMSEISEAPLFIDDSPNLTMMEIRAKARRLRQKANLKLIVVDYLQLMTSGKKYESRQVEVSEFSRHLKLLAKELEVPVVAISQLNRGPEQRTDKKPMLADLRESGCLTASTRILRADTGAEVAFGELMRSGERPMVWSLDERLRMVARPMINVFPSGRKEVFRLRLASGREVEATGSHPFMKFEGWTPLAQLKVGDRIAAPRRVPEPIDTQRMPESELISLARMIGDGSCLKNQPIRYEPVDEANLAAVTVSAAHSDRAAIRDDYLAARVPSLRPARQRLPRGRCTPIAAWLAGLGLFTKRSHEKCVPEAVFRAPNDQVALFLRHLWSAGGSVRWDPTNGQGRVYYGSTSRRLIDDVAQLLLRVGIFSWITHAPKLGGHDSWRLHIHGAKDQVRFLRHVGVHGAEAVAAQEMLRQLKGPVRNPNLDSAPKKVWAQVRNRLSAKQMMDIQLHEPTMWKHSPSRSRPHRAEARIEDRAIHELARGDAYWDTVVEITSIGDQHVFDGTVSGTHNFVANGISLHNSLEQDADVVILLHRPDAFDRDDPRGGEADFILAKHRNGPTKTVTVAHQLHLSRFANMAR
In words: DnaB intein splicing inhibitors, dose response, biochemical, cell-free fluorescence (AID 449749). In kind it is functional.

For another experiment, the target named is Paired box protein Pax-8 (Homo sapiens, UniProt Q06710). In words: PAX8 transcriptional activity inhibition in RMG-I – RMG-I cells, luciferase, cherry-pick, dose response (AID 687027).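 Also: luciferase reporter driven by Pax8 target thyroperoxidase promoter measured by SteadyGlo luminescence.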 Type of experiment: functional, cell-based.
Chain of Paired box protein Pax-8 (Q06710 whole entry): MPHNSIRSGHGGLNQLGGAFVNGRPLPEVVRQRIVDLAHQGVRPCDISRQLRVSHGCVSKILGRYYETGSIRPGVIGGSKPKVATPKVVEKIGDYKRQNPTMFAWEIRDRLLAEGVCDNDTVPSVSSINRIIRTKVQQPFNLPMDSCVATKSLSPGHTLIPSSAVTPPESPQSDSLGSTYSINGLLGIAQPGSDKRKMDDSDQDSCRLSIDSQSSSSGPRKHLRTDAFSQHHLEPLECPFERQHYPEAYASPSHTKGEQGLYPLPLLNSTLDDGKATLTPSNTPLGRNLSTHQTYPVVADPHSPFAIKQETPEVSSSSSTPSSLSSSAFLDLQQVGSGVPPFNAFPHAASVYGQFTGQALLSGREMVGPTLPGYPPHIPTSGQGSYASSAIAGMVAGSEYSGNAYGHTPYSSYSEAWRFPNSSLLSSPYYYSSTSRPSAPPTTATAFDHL
In the next experiment the target is T5, Protein RecA (Mycobacterium tuberculosis, UniProt P9WHJ3).
T5 sequence (P9WHJ3 whole entry): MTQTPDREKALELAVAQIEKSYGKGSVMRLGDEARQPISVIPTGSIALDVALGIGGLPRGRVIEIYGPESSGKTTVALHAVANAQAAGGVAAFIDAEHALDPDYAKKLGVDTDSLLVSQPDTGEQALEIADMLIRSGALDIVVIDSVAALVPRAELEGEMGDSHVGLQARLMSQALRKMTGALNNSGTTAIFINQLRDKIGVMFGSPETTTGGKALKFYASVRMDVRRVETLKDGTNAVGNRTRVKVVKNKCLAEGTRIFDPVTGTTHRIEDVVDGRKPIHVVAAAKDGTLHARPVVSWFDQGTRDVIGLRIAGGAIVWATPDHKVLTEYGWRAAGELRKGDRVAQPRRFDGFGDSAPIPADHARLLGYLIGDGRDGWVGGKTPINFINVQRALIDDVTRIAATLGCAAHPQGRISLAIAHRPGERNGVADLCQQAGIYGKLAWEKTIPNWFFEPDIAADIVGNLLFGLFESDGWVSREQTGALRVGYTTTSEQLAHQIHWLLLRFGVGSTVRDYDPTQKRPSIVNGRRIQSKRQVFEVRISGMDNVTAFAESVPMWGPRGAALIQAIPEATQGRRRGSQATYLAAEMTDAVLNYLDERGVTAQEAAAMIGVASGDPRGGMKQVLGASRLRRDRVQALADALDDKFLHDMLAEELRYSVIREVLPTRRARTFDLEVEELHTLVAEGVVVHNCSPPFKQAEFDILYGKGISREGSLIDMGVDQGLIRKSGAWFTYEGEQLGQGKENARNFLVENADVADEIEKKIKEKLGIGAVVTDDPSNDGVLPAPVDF
Briefly: Fluorescence Cell-Free Homogeneous Dose Retest to Identify Inhibitors of RecA-Intein Splicing Activity. [Related pubchem assays (depositor defined):AID2097, AID2223, AID489010, AID492950]. Type of experiment: functional.

The nature of experiment [18]: general cell-killing toxicity readout – plate reader, dry powder samples, cytotoxicity control for PAX8 inhibitor project, dose response (AID 743021). In kind it is functional, cell-based.

As to `CC(=O)c1c(OC(=O)c2ccco2)c2ccccc2n1C`, at Prothrombin, the IC50 is 3.99 µM (active).
As for `O=C(Nc1ccc(Cl)cc1Cl)c1ccc2c(c1)OCCO2`, the AC50 was > 52 µM (inactive) in [1], 42.4 µM (active) in experiment [2], 6.49 µM (active) in experiment [3] and 12.9 µM (active) in experiment [4].
Consider `O=C(Cc1ccccc1)N1CCN(S(=O)(=O)c2ccc([N+](=O)[O-])cc2)CC1`, for which the IC50 in experiment [5] is given as 29.1 µM (not active).
As for `Cc1cc(C)c(CSc2nc(-c3ccc([N+](=O)[O-])cc3)c[nH]2)c(C)c1`, the IC50 in [6] is > 69.5 µM (inactive). The EC50 was 3.48 µM (active) in [7]; 3.92 µM (active) in experiment [9]; 39.4 µM (active) with Streptococcus; 10.3 µM (active) on Streptokinase A; > 60 µM (inconclusive) in experiment [10]. In addition, the CC50 in experiment [8] is 22.3 µM (active).
On to `Oc1nc2cc3c(cc2cc1CN(Cc1nnnn1CC1CCCO1)C1CCCC1)OCO3` (stereo not drawn), for which the IC50 in [11] and in [13] was > 66 µM (inactive) in each case. Besides, in experiment [12], the EC50 is recorded as 47.2 µM (not active).
As for `CCOC(=O)N1CCN(Cc2ccc(O)c3ncccc23)CC1`, the EC50 in experiment [14] was > 150 µM (inactive); in [15] it was > 38 µM (not active). Besides, in experiment [16], the IC50 is 10.6 µM (active).
As for `O=C(CCl)N(Cc1ccccc1)c1ccccc1`, the AC50 is 18.4 µM (active) in experiment [17], 3.95 µM (active) on Paired box protein Pax-8 and 9.34 µM (active) in [18]. At Protein RecA, the EC50 is 813 nM (active).
